pIC50: −log10 of the molar value.
Biological target: Serine/threonine-protein phosphatase PP1-alpha catalytic subunit (Homo sapiens) (UniProt P62136)
Test: PP1alpha phosphatase inhibitors, phosphorylase substrate – biochemical, radiolabel, dose response, powder samples, set 2, orthogonal assay for PP1 inhibitor probe project, late-stage follow-up (AID 652227)
Settings: purified PP1alpha, 32P/33P-phosphorylase dephosphorylation, scintillation

Serine/threonine-protein phosphatase PP1-alpha catalytic subunit (Homo sapiens), sequence (P62136 whole entry, looked up): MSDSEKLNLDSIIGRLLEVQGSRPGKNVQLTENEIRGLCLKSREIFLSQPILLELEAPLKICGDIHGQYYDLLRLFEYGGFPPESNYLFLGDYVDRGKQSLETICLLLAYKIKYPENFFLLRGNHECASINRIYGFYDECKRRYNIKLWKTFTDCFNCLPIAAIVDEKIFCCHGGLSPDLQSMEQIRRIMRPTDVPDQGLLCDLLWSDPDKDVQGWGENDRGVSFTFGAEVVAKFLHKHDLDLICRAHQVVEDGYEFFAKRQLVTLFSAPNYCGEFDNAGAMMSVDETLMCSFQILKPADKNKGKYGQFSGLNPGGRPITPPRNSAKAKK

Compound	pIC50
COc1ccc(NC(=O)C2C3CCC(O3)C2C(=O)O)c(OC)c1 (stereo not given)	4.72
CCOC(=O)c1sc2nc3c(SCC(=O)O)cc(C(=O)c4cc(F)ccc4O)cn3c(=O)c2c1C	5.07
N#Cc1c(-c2ccc(Cl)cc2)cc(-c2cccs2)nc1SCC(=O)O	4.66
CCn1c2ccccc2c2cc(NC(=O)COC(=O)c3ccc(NC(=O)CC#N)cc3)ccc21	4.42
CN1CCN(C(c2ccccn2)c2cc(Cl)c3cccnc3c2O)CC1 (stereo not given)	5.31

— PubChem BioAssay AID652227 (The Scripps Research Institute Molecular Screening Center, 2013)
